Molecules are shown by their SMILES.

What all share (test): Growth on urinary catheter segments coated with TDMAC plus composition (roll plate)
Test [1] relates to Pseudomonas aeruginosa. The test is classed as cell-based. The method, then:
(§1) Clear vinyl catheter segments (3 cm sections of tubing) that had been preheated (incubated in sterile water at 65° C. overnight) were coated in 5% TDMAC in ethanol for an hour at room temperature. The catheter segments were vigorously washed with sterile water and air-dried. The segments were then immersed in ethanol and coating solution (1000 μg OT+100 μg PS+100 μg EDTA/ml of water) for 2 hours at −20° C. In addition, a few catheter segments were immersed in coating solution alone for 2 hours at −20° C. All the segments were air dried and immersed in a tryptic soy broth culture of Pseudomonas aeruginosa, Klebsiella pneumoniae and Staphylococcus epidermidis for 3 hours at 37° C. The catheter segments were washed 3 times in 3 changes of sterile saline and rolled on tryptic soy agar plates. The plates were incubated overnight at 37° C. and the colonies were counted.

Test [2] relates to Klebsiella pneumoniae. The test is classed as cell-based. The method, then:
as §1

Test [3] has as its system Staph. epidermidis. Format: cell-based, Staphylococcus epidermidis. As for the experimental part: as §1
[4] abbreviates: coated vinyl catheter segments vs uncoated control, coating at −20° C.
Setting [5] is: coated vinyl catheter segments, coating 2 hours at −20° C., 3 hours in culture at 37° C., CFU per millimeter of catheter tubing.

As for `CCCCCCCCCCCC[N+](C)(CCCCCCCCCCCC)CCCCCCCCCCCC.[Cl-]` [TDMAC, Tridodecyl Methyl Ammonium Chloride], the figures for the “% Inhibition” value in test [1] (setting [4]), in test [2] (setting [4]) and in test [3] (setting [4]) were 12%, 0% and 0%, respectively. In addition, the “Viable Counts (CFU/mM)” value came to 18.8 ± 4.6 CFU/mM in test [1] (setting [5]), 4.3 ± 1.3 CFU/mM in test [2] (setting [5]) and 20.4 ± 7.7 CFU/mM in test [3] (setting [5]).

Values taken from US7314857B2, “Synergistic antimicrobial compositions and methods of inhibiting biofilm formation” (Kane Biotech Inc., priority 2003, dated 2008).
